Experimental data from patent US20260297060A1, “COMPOUNDS FOR THE DEGRADATION OF MUTANT BRAF” (C4 THERAPEUTICS, INC., priority 2023, published 2026).
Read-outs that look alike come from different tables or passages of the source.

What was measured:
[1] = system: A375-NRAS^Q61K cells; assay: CTGlo Cell Viability Assay, A375-NRAS^Q61K (A375.11) cells, 96 hours; type: cell-based, human; details: A375.11 (A375-NRAS^Q61K) cells; for CTGlo A375.11 96 hours Emax / Emax: lowest % viability achieved
How it was run: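 A375 cells carrying BRAF V600E and NRAS Q61K were seeded at 250 cells/well with a 10-point half-log dose series (max 10 μM final). After 96 h at 37 °C, viability was read as ATP luminescence (CellTiter-Glo), background-subtracted and normalized to DMSO (100%). GI50 from 4-parameter fit; Emax is the lowest % viability.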

[2] = molecular target: T1, BRAF V600E (Homo sapiens, UniProt P15056+Q96SW2, V600E); assay: BRAF V600E HiBiT Degradation Assay; type: cell-based
T1 construct: knock-in of the HiBiT tag to the endogenous BRAF V600E locus; host or cells: A375.10 (A375 clonal line, CRISPR HiBiT knock-in at the endogenous BRAF V600E locus)
T1 sequence (P15056 whole entry V600E): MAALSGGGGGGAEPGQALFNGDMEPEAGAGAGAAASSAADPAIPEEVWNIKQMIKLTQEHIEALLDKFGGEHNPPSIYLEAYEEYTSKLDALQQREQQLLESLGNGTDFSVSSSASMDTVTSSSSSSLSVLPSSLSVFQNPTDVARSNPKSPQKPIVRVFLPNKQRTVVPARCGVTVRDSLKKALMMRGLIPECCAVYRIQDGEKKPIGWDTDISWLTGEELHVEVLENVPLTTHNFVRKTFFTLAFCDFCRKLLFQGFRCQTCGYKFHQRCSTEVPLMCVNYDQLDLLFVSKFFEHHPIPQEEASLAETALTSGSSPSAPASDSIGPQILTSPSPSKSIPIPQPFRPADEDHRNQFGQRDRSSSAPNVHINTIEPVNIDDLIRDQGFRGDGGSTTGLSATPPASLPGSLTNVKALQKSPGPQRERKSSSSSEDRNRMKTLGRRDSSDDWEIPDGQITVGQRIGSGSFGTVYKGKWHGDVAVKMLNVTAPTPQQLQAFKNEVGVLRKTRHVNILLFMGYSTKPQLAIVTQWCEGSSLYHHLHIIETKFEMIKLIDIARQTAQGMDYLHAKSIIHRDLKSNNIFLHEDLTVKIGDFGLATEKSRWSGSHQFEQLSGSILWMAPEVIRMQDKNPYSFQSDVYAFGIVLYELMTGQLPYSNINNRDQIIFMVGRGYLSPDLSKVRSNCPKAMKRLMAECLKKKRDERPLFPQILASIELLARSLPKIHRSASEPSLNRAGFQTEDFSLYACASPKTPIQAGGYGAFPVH
T1 sequence (Q96SW2 whole entry): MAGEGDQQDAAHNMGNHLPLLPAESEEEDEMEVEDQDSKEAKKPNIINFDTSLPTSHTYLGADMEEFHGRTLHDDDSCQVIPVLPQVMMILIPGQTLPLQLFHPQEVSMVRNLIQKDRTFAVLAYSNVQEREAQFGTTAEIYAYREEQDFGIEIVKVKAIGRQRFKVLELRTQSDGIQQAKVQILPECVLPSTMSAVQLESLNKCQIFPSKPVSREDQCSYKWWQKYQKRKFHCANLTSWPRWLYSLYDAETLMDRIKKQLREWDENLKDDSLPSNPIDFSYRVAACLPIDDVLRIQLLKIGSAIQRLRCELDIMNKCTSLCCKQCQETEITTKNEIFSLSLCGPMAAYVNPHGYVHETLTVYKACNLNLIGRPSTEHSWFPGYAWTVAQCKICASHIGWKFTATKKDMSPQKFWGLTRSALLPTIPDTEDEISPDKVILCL
T1 sequence (Q16531 whole entry partner): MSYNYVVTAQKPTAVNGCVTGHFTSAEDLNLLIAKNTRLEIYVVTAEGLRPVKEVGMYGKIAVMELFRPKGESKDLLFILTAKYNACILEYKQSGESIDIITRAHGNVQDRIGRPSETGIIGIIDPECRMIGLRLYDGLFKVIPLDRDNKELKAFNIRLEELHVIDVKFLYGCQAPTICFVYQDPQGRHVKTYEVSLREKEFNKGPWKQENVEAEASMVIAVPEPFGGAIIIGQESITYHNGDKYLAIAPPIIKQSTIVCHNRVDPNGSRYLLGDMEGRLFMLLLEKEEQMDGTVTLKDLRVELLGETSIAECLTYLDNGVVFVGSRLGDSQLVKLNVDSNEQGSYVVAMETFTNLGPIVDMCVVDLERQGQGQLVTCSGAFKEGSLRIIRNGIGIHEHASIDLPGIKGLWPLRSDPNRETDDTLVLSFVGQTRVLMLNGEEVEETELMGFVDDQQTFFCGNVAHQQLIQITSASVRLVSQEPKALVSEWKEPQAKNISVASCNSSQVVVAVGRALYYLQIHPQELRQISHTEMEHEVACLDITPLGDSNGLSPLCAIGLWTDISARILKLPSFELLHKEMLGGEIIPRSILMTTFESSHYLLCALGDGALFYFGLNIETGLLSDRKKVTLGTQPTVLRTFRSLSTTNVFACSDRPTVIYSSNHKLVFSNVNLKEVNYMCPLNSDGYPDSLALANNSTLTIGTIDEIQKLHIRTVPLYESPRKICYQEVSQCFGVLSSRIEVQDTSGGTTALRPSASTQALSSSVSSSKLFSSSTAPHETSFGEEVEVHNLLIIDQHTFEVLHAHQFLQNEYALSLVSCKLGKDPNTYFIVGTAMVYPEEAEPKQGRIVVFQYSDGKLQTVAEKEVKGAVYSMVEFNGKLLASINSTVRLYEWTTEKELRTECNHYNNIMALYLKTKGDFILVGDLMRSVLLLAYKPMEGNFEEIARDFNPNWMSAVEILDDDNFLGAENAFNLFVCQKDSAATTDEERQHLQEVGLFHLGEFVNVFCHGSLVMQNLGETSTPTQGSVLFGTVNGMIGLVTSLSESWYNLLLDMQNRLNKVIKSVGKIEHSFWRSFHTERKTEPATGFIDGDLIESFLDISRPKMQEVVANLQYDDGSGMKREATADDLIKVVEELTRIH
How it was run: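 Endogenous HiBiT knock-in on BRAF V600E in A375 cells (clone A375.10); 11-point half-log series, top 10 μM, 2, 6 or 24 h at 37° C. Lytic HiBiT luminescence, background-subtracted, normalized to DMSO; 4-parameter fit gives DC50, Emax (residual protein) and IP (inflection point).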

[3] = A375.10 cells, BRAF V600E, 2 hours, inflection point, read-out: HiBiT-Degradation A375.10 BRAF 2 hours IP
[4] = A375.10 cells, BRAF V600E, 2 hours, read-out: HiBiT-Degradation A375.10 BRAF 2 hours DC50
[5] = A375.10 cells, BRAF V600E, 2 hours, residual protein remaining
[6] = A375.10 cells, BRAF V600E, 2 hours, residual protein remaining, read-out: HiBiT-Degradation A375.10 BRAF 2 hours Emax

## CCN(C)S(=O)(=O)Nc1ccc(F)c(Oc2ccc3ncn([C@@H]4C[C@@H]5CN(C6CCC(c7cc8c(cc7F)c(N7CCC(=O)NC7=O)nn8C)CC6)C[C@@H]5C4)c(=O)c3c2)c1C#N (single isomer, unassigned) [Compound 17]
[1]
  GI50: > 10000 nM
  CTGlo A375.11 96 hours Emax: ** (<90% and >50%)
[2]; [3]
  DC50: < 1000 nM
[2]; [4]
  DC50: < 1000 nM
[2]; [5]
  HiBiT-Degradation A375.10 BRAF 2 hours Emax: ** (<90% and >50%)

## CCN(C)S(=O)(=O)Nc1ccc(F)c(Oc2ccc3ncn(C4CCC5(CC4)CCN(C4CCC(c6ccc(NC7CCC(=O)NC7=O)cc6F)CC4)CC5)c(=O)c3c2)c1C#N (single isomer, unassigned) [Compound 11, 9-[6-[2-cyano-3-[[ethyl(methyl)sulfamoyl]amino]-6-fluoro-phenoxy]-4-oxo-quinazolin-3-yl]-3-[4-[4-[(2,6-dioxo-3-piperidyl)amino]-2-fluoro-phenyl]cyclohexyl]-3-azaspiro[5.5]undecane]
[1]
  GI50: > 10000 nM
[1]; Homo sapiens, 96 h
  Emax: 50 to 90%
[2]; [3]
  DC50: < 1000 nM
[2]; [4]
  DC50: < 1000 nM
[2]; [5]
  HiBiT-Degradation A375.10 BRAF 2 hours Emax: *** (<=50%)

## CCN(C)S(=O)(=O)Nc1ccc(F)c(Oc2ccc3ncn([C@@H]4COC5(CCN(C6CCC(c7ccc(NC8CCC(=O)NC8=O)cc7F)CC6)CC5)C4)c(=O)c3c2F)c1C#N (single isomer, unassigned) [Compound 53]
[1]
  GI50: 1000 to 10000 nM
  CTGlo A375.11 96 hours Emax: ** (<90% and >50%)
[2]; [3]
  DC50: < 1000 nM
[2]; [4]
  DC50: < 1000 nM
[2]; [5]
  HiBiT-Degradation A375.10 BRAF 2 hours Emax: *** (<=50%)

## CO[C@@H]1CCN(S(=O)(=O)Nc2ccc(F)c(Oc3ccc4ncc(C5CC6(CCN(C7CCC(c8cc9c(cc8F)c(N8CCC(=O)NC8=O)nn9C)CC7)CC6)C5)nc4c3)c2C#N)C1 (single isomer, unassigned) [Compound 285]
[1]
  GI50: < 1000 nM
[2]; [4]
  DC50: < 1000 nM

## CCN(C)S(=O)(=O)Nc1ccc(F)c(Oc2ccc3ncnc(OC4CC5(CCN(C6CCC(c7cc8c(cc7F)c(N7CCC(=O)NC7=O)nn8C)CC6)CC5)C4)c3c2)c1C#N (single isomer, unassigned) [Compound 243, 6-[2-cyano-3-[[ethyl(methyl)sulfamoyl]amino]-6-fluoro-phenoxy]-4-[[7-[4-[3-(2,4-dioxohexahydropyrimidin-1-yl)-5-fluoro-1-methyl-indazol-6-yl]cyclohexyl]-7-azaspiro[3.5]nonan-2-yl]oxy]quinazoline]
[1]; Homo sapiens, 96 h
  GI50: 1000 to 10000 nM
  Emax: 50 to 90%
[2]; [3]
  DC50: < 1000 nM
[2]; [4]
  DC50: 1000 to 10000 nM
[2]; [6]
  Emax: 50 to 90%

## CCN(C)S(=O)(=O)Nc1ccc(F)c(Oc2ccc3ncc([C@@H]4COC5(CCN(C6CC7(C6)CN(c6cc8c(cc6F)c(N6CCC(=O)NC6=O)nn8C)C7)CC5)C4)nc3c2)c1C#N [Compound 161, (3R)-3-[7-[2-cyano-3-[[ethyl(methyl)sulfamoyl]amino]-6-fluoro-phenoxy]quinoxalin-2-yl]-8-[2-[3-(2,4-dioxohexahydropyrimidin-1-yl)-5-fluoro-1-methyl-indazol-6-yl]-2-azaspiro[3.3]heptan-6-yl]-1-oxa-8-azaspiro[4.5]decane]
[1]; Homo sapiens, 96 h
  GI50: 1000 to 10000 nM
  Emax: 50 to 90%
[2]; [3]
  DC50: < 1000 nM
[2]; [4]
  DC50: > 10000 nM
[2]; read-out: HiBiT-Degradation A375.10 BRAF 2 hours Emax, A375.10 cells, BRAF V600E, 2 hours, residual protein remaining
  Emax: 50 to 90%

## Cn1nc(N2CCC(=O)NC2=O)c2cc(F)c([C@H]3CC[C@@H](N4CCC5(CC4)CC(c4cnc6ccc(Oc7c(F)ccc(NS(=O)(=O)N8CC[C@@H](F)C8)c7C#N)cc6n4)C5)CC3)cc21 (single isomer, unassigned) [Compound 268]
[1]; Homo sapiens, 96 h
  GI50: < 1000 nM
  Emax: < 50%
[2]; [3]
  DC50: < 1000 nM
[2]; [4]
  DC50: < 1000 nM
[2]; [6]
  Emax: < 50%

## CCN(C)S(=O)(=O)Nc1ccc(F)c(Oc2ccc3ncn([C@H]4COC5(CCN(CC6CN(c7cc8c(cc7F)c(N7CCC(=O)NC7=O)nn8C)C6)CC5)C4)c(=O)c3c2)c1C#N [Compound 231, (3R)-3-[6-[2-cyano-3-[[ethyl(methyl)sulfamoyl]amino]-6-fluoro-phenoxy]-4-oxo-quinazolin-3-yl]-8-[[1-[3-(2,4-dioxohexahydropyrimidin-1-yl)-5-fluoro-1-methyl-indazol-6-yl]azetidin-3-yl]methyl]-1-oxa-8-azaspiro[4.5]decane]
[1]; Homo sapiens, 96 h
  GI50: 1000 to 10000 nM
  Emax: 50 to 90%
[2]; [3]
  DC50: < 1000 nM
[2]; [4]
  DC50: < 1000 nM
[2]; [6]
  Emax: 50 to 90%
[2]; A375.10 cells, HiBiT, BRAF V600E, 24 hours, read-out: HiBiT-Degradation A375.10 BRAF 24 hours DC50
  DC50: < 1000 nM
[2]; A375.10 cells, HiBiT, BRAF V600E, 24 hours, read-out: HiBiT-Degradation A375.10 BRAF 24 hours Emax
  Emax: < 50%
[2]; A375.10 cells, HiBiT, BRAF V600E, 24 hours, read-out: HiBiT-Degradation A375.10 BRAF 24 hours IP
  DC50: < 1000 nM

## CCN(C)S(=O)(=O)Nc1ccc(F)c(Oc2ccc3ncc(OCC4CCN(C5CCC(c6ccc(NC7CCC(=O)NC7=O)cc6F)CC5)CC4)nc3c2)c1C#N (single isomer, unassigned) [Compound 116, 7-[2-cyano-3-[[ethyl(methyl)sulfamoyl]amino]-6-fluoro-phenoxy]-2-[[1-[4-[4-[(2,6-dioxo-3-piperidyl)amino]-2-fluoro-phenyl]cyclohexyl]-4-piperidyl]methoxy]quinoxaline]
[1]
  GI50: > 10000 nM
[1]; Homo sapiens, 96 h
  Emax: 50 to 90%
[2]; [3]
  DC50: < 1000 nM
[2]; [4]
  DC50: 1000 to 10000 nM
[2]; [6]
  Emax: 50 to 90%

## CN(CCO)S(=O)(=O)Nc1ccc(F)c(Oc2ccc3ncc([C@@H]4COC5(CCN(C6CCC(c7cc8c(cc7F)c(N7CCC(=O)NC7=O)nn8C)CC6)CC5)C4)nc3c2)c1C#N (single isomer, unassigned) [Compound 174]
[1]; Homo sapiens, 96 h
  GI50: < 1000 nM
  Emax: 50 to 90%
[2]; [3]
  DC50: < 1000 nM
[2]; [4]
  DC50: < 1000 nM
[2]; [6]
  Emax: < 50%

## CCN(C)S(=O)(=O)Nc1ccc(F)c(Oc2ccc3ncc(OCC4(F)CCN(C5CCC(c6cc7c(cc6F)c(N6CCC(=O)NC6=O)nn7C)CC5)CC4)nc3c2)c1C#N (single isomer, unassigned) [Compound 228, 7-[2-cyano-3-[[ethyl(methyl)sulfamoyl]amino]-6-fluoro-phenoxy]-2-[[1-[4-[3-(2,4-dioxohexahydropyrimidin-1-yl)-5-fluoro-1-methyl-indazol-6-yl]cyclohexyl]-4-fluoro-4-piperidyl]methoxy]quinoxaline]
[1]; Homo sapiens, 96 h
  GI50: 1000 to 10000 nM
  Emax: 50 to 90%
[2]; [3]
  DC50: < 1000 nM
[2]; [4]
  DC50: 1000 to 10000 nM
[2]; [6]
  Emax: 50 to 90%

## CCN(C)S(=O)(=O)Nc1ccc(F)c(C(=O)c2ccc3ncn(C4CC5(C4)CN(C4CC6(C4)CN(c4cc7c(cc4F)c(N4CCC(=O)NC4=O)nn7C)C6)C5)c(=O)c3c2)c1F (stereo not drawn) [Compound 306, 3-[2-[2-[3-(2,4-dioxohexahydropyrimidin-1-yl)-5-fluoro-1-methyl-indazol-6-yl]-2-azaspiro[3.3]heptan-6-yl]-2-azaspiro[3.3]heptan-6-yl]-6-[3-[[ethyl(methyl)sulfamoyl]amino]-2,6-difluoro-benzoyl]-4-oxo-quinazoline]
[1]; Homo sapiens, 96 h
  GI50: > 10000 nM
  Emax: 50 to 90%
[2]; [3]
  DC50: < 1000 nM
[2]; [4]
  DC50: < 1000 nM
[2]; [6]
  Emax: 50 to 90%

## CCN(C)S(=O)(=O)Nc1ccc(F)c(Oc2ccc3ncn(CC4CCN(C5CC6(C5)CN(c5cc7c(cc5F)c(N5CCC(=O)NC5=O)nn7C)C6)CC4)c(=O)c3c2)c1C#N [Compound 258, 6-[2-cyano-3-[[ethyl(methyl)sulfamoyl]amino]-6-fluoro-phenoxy]-3-[[1-[2-[3-(2,4-dioxohexahydropyrimidin-1-yl)-5-fluoro-1-methyl-indazol-6-yl]-2-azaspiro[3.3]heptan-6-yl]-4-piperidyl]methyl]-4-oxo-quinazoline]
[1]; Homo sapiens, 96 h
  GI50: > 10000 nM
  Emax: 50 to 90%
[2]; [3]
  DC50: < 1000 nM
[2]; [4]
  DC50: 1000 to 10000 nM
[2]; [6]
  Emax: 50 to 90%

## CCN(C)S(=O)(=O)Nc1ccc(F)c(Nc2ccc3ncn([C@H]4COC5(CCN(C6CCC(c7ccc(NC8CCC(=O)NC8=O)cc7F)CC6)CC5)C4)c(=O)c3c2)c1C#N (single isomer, unassigned) [Compound 56]
[1]
  GI50: > 10000 nM
[1]; Homo sapiens, 96 h
  Emax: 50 to 90%
[2]; [3]
  DC50: < 1000 nM
[2]; [4]
  DC50: < 1000 nM
[2]; [6]
  Emax: < 50%

## CCN(C)S(=O)(=O)Nc1ccc(F)c(C(=O)c2ccc3ncn(C4CC5(CCN(C6CCC(c7ccc(NC8CCC(=O)NC8=O)cc7F)CC6)CC5)C4)c(=O)c3c2)c1F (single isomer, unassigned) [Compound 200, 3-[7-[4-[4-[(2,6-dioxo-3-piperidyl)amino]-2-fluoro-phenyl]cyclohexyl]-7-azaspiro[3.5]nonan-2-yl]-6-[3-[[ethyl(methyl)sulfamoyl]amino]-2,6-difluoro-benzoyl]-4-oxo-quinazoline]
[1]
  GI50: 1000 to 10000 nM
  CTGlo A375.11 96 hours Emax: ** (<90% and >50%)
[2]; [3]
  DC50: < 1000 nM
[2]; [4]
  DC50: < 1000 nM
[2]; [5]
  HiBiT-Degradation A375.10 BRAF 2 hours Emax: *** (<=50%)
